# Measurements as given in patent US12402627B2, “Metal complexes for promoting growth in a photosynthetic organism” (Imperial College Innovations Limited, priority 2018, dated 2025).
# Assays:
# [1] = Kinetic measurement of CO2 hydration via stopped flow; type: biochemical; settings: pH 7.4; for Hydration kobs: 25° C.
# Text: (§1) The hydration and dehydration rate measurements were undertaken by detecting the associated pH change through the use of an appropriate colorimetric pH indicator via stopped-flow equipment (Applied Photophysics SX-20 Stopped-flow Spectrometer) as described by B. H. Gibbons et al. (J. Biol. Chem., 238(10), (1963), 3502-3507). The pH time-dependence of CO2 hydration or HCO3− dehydration was observed via the absorbance change of a buffered indicator solution in order to measure the change in Vhydr/dehydr over a concentration range of zinc mimic, and to determine the observed rate constant (kobs) for each reaction.
# (§2) Following the procedure reported by K. Nakata et al. (J. Inorg. Biochem., 89, (2002), 255-266), a 0.1 M buffer solution containing 10×10^−5M indicator, 0.2 M NaClO4 and varying concentrations of the zinc complex in DMSO 1:9 H2O were loaded into one syringe and a CO2 or HCO3− aqueous solution in the other. […] The saturated solution was diluted appropriately to give the desired concentration of CO2. HCO3− solutions were prepared by dissolving NaHCO3 in water to give the desired concentration of HCO3−. The buffer-indicator pairs were chosen based upon their similar pKa's, and the pH of the buffer-indicator solution was adjusted to match these pKa's to maximize sensitivity to pH change (see Table 2).
# (§3) Upon mixing of the two syringes, the change in absorbance over time was measured at 25° C. For each buffer solution employed over the tested pH range, the buffer factor (change in absorbance vs concentration of HCl/NaOH) and linearity of CO2 and HCO3− (change in absorbance vs concentration of CO2/HCO3−) were determined as controls.
# (§4) Based upon the linearity of the response between CO2 or HCO3− concentration and change in absorbance, appropriate concentrations of CO2 or HCO3− were chosen within the linear range for the subsequent complex runs. At each concentration of complex, the Vhydr (rate of hydration) and Vdehyd (rate of dehydration) was measured and kobs (observed rate constant) was calculated as per the procedure of by K. Nakata et al. (J. Inorg. Biochem., 89, (2002), 255-266).
# (§5) Briefly, Vhyd/dehyd=−Q(A0−Ae)[d(In(A−Ae))/dt]t→0, where Q=buffer factor. The function [d(In(A−Ae))/dt]t→0 was taken from fitting the first linear portion of the time-dependent absorbance data with a single exponential decay function. kobs was calculated as the slope of the linear fit between mimic concentration and Vhyd/dehyd/[S]. kcat (catalytic rate constant) was calculated as the pH independent catalyst rate constant as per K. Nakata et al. (J. Inorg. Biochem., 89, (2002), 255-266) and L. Koziol et al. (Inorg. Chem., 51(12), (2012) 6803-12) for the hydration reaction (kcat=kobs×(([H^+]/Ka)+1)), and Y.-J. Sun et al. (Inorg. Chem. Commun., 7(2), (2004), 165-168) for the dehydration reaction (kcat=(kobs×([H^+]+Ka))/[H^+]). Each run of 3 repeats was undertaken 3 times and the average taken, to give N=9.
# [2] = Kinetic measurement of HCO3− dehydration via stopped flow; type: biochemical; settings: for Dehydration kobs: pH 7.4, 25° C.
# Text: as §1, §2, §3, §4, §5
# Rubisco = target: T1, Rubisco (Spinacia oleracea, UniProt P00875); assay: Effect of zinc mimics on Rubisco activity (non-radioactive microplate assay, 3-PGA/NADH oxidation); type: biochemical; settings: pH 8; 0-50 μM zinc mimic; FIGS. 4 to 7
# T1 construct: from tissue; purified by the cited method of O'Donnelly et al., Plant Methods 2014
# Protocol: Rubisco was purified using hydrophobic interaction chromatography as per the method of K. O'Donnelly et al. (Plant methods, 10, (2014), 17). For all assays, the rate was determined using a non-radioactive microplate-based assay, which determines the product 3-phosphoglycerate (3-PGA) through the oxidation of NADH by optical density measurements at 340 nm at 25° C., adapted from R. Sulpice et al. (Plant Cell Environ., 30(9), (2007), 1163-75) and K. O'Donnelly et al. (Plant methods, 10, (2014), 17). A Thermo Scientific Varioskan Flash Multimode microplate reader was used to monitor the oxidation of NADH for 15 minutes every 100 ms.
# The enzymological properties of Rubisco were typically measured as follows: 10 μL Rubisco and 10 μL of initial buffer were incubated for 15 mins, after which 10 μL of ribulose 1,5-biphosphate (RuBP) was added [Final concentrations for Rubisco assay in 30 μL total volume were 0, 10, 20, 40, 80, 150, 300 and 500 μM RuBP, 0.02 mg/mL Rubisco, 100 mM tricine (pH 8.0/NaOH), 20 mM MgCl2, 2 mM EDTA and 10 mM NaHCO3]. […] The activity was calculated as μmol·min^−l·mg^−1 using a calibration curve with 3PGA. […]
# 10 μL of Rubisco and 10 μL of pH 8 initial buffer containing varying concentrations of zinc complex were incubated in a 96 well plate for 15 mins. […] The final pH, after the addition of NaHCO3, and before the addition of Rubisco, was measured as pH 8.0. […]
# [3] = system: spinach (Spinacia oleracea L.); assay: Effect of zinc mimics on spinach growth (number of new leaves); type: in vivo; settings: 1.5 mM in DMSO or H2O, 5 μl droplets to each leaf, three times a week for two weeks, FIG. 8
# Protocol: Commercial cultivar spinach seeds (Spinacia oleracea L.) were planted in soil mixture of “John Innes Inc. seed sowing compost No2”: Vermiculite (4:1) in small pots. Spinach seeds were germinated in a Sanyo MLR-352 growth chamber under day (photosynthetically active photon flux density (PPFD) at 110-130 μmol·m-2s-1) and night conditions, changing every 12 hours. Air temperature was maintained at 20° C. and 15° C. during day and night conditions, respectively, with a constant relative humidity at 65%. Spinach plants were irrigated three times a week. At the second true leaf stage (approximately 3 weeks from seed germination), the seeds were transferred into larger singular pots in “John Innes No2—Potting on compost” soil. No extra fertilizer was added.
# At the fourth true leaf stage (roughly 4-6 weeks after germination), the treatment (1.5 mM in DMSO or H2O) was applied directly to each leaf of the plant in 5 μl droplets using a Brand Handystep S. The treatments were applied three times a week (directly after irrigation) for two weeks. The leaf stage and the state of the leaves were observed throughout the treatment period.
# [4] = high substrate concentration (16.9 mM)
# [5] = low substrate concentration (1.69 mM)
Compound,"Hydration:Dehydration Ratio [1, 4]","Hydration kobs [1, 4] [M⁻¹ s⁻¹]","Hydration:Dehydration Ratio [1, 5]","Hydration kobs [1, 5] [M⁻¹ s⁻¹]","Dehydration kobs [2, 4] [M⁻¹ s⁻¹]","Dehydration kobs [2, 5] [M⁻¹ s⁻¹]",rubisco activity (Rubisco),"specificity toward dehydration ([2]; from the results in Tables 3 and 4, pH 7.4)",number of new leaves [3]
"O.[O-][Cl+3]([O-])([O-])[O-].[O-][Cl+3]([O-])([O-])[O-].[Zn+2].c1ccc2sc(CNCc3nc4ccccc4s3)nc2c1 [Zn2S, zinc complex of bis(2-benzothiazolylmethyl)amine]",0.57,17.5 ± 8.6,3.01,347.1 ± 33.0,30.6 ± 0.6,115.2 ± 1.8,–,–,–
"O.[O-][Cl+3]([O-])([O-])[O-].[O-][Cl+3]([O-])([O-])[O-].[Zn+2].c1ccc2sc(CN(Cc3nc4ccccc4s3)Cc3nc4ccccc4s3)nc2c1 [Zn3S, zinc complex of tris(2-benzothiazolylmethyl)amine]",0.65,24.5 ± 10.4,3.05,429.7 ± 51.2,37.8 ± 0.8,140.8 ± 4.8,significant improvement in activity,–,–
zinc complex of bis(2-benzimidazolylmethyl)(2-benzothiazolylmethyl)amine [Zn2N1S],0.60,26.6 ± 11.1,3.14,495.4 ± 34.0,44.6 ± 1.6,157.6 ± 2.1,–,–,–
zinc complex of bis(2-benzimidazolylmethyl)amine [Zn2N],0.80,22.0 ± 9.3,3.94,370.6 ± 13.4,27.5 ± 0.5,94.1 ± 1.6,–,–,–
zinc complex of bis(2-benzothiazolylmethyl)(2-benzimidazolylmethyl)amine [Zn1N2S],0.49,25.3 ± 8.4,2.57,440.8 ± 24.5,51.9 ± 0.5,171.3 ± 4.5,significant improvement in activity,best specificity toward dehydration,–
zinc complex of tris(2-benzimidazolylmethyl)amine [Zn3N],1.02,34.4 ± 11.3,4.13,512.3 ± 60.3,33.8 ± 0.8,124.1 ± 1.8,–,–,significant improvement in the number of new leaves
